The target in series [1] is T1, [Pyruvate dehydrogenase (acetyl-transferring)] kinase isozyme 2, mitochondrial (Homo sapiens, UniProt Q15119). The series can be described thus: Inhibition of N-terminal His6-SUMO tagged recombinant human PDK2 using [32P]-gamma-ATP assessed as decrease in incorporation of radioactivity into E1 protein incubated for 2 mins.
Series [2] deals with T1, [Pyruvate dehydrogenase (acetyl-transferring)] kinase isozyme 2, mitochondrial. The experiment in a line: Binding affinity to N-terminal His6-SUMO tagged recombinant human PDK2 by isothermal titration calorimetry.
Series [3] deals with Plasma. The experiment in a line: Terminal half life in CD1 mouse plasma at 70 mg/kg, ip by LC-MS/MS analysis. Format: ADME, organism-based. The conditions noted are these: in vivo.
Series [4] deals with Plasma. The series can be described thus: Cmax in CD1 mouse plasma at 70 mg/kg, ip by LC-MS/MS analysis. Format: ADME, organism-based. Further details: dose 70 mg/kg, route intraperitoneal. The conditions noted are these: in vivo.
Series [5] has as its system Plasma. The series can be described thus: Tmax in CD1 mouse plasma at 70 mg/kg, ip by LC-MS/MS analysis. Format: ADME, organism-based. To be noted: in vivo.
Series [6] relates to Plasma. The experiment in a line: AUClast in CD1 mouse plasma at 70 mg/kg, ip by LC-MS/MS analysis. Type of series: ADME, organism-based. Also on record: dose 70 mg/kg, route intraperitoneal, time 0 - last. The conditions noted are these: in vivo.
Series [7] concerns Plasma. The series can be described thus: Apparent volume of distribution during terminal phase in CD1 mouse plasma at 70 mg/kg, ip by LC-MS/MS analysis. Format: ADME, organism-based. To be noted: in vivo.
Series [8] in a line: Apparent clearance in CD1 mouse plasma at 70 mg/kg, ip by LC-MS/MS analysis. Format: ADME, organism-based.
The subject of series [9] is Liver. The series can be described thus: Terminal half life in CD1 mouse liver at 70 mg/kg, ip by LC-MS/MS analysis. Format: ADME, organism-based. The conditions noted are these: in vivo.
Series [10] concerns Liver. The series can be described thus: Cmax in CD1 mouse liver at 70 mg/kg, ip by LC-MS/MS analysis. Also on record: dose 70 mg/kg, route intraperitoneal. To be noted: in vivo. Format: ADME, organism-based.
Series [11] concerns Liver. The experiment in a line: Tmax in CD1 mouse liver at 70 mg/kg, ip by LC-MS/MS analysis. Type of series: ADME, organism-based. To be noted: in vivo.
Series [12] deals with Liver. The experiment in a line: AUClast in CD1 mouse liver at 70 mg/kg, ip by LC-MS/MS analysis. Type of series: ADME, organism-based. To be noted: in vivo.
Series [13] deals with Liver. The series can be described thus: Apparent volume of distribution during terminal phase in CD1 mouse liver at 70 mg/kg, ip by LC-MS/MS analysis. Format: ADME, organism-based. To be noted: in vivo.
For series [14], the system named is Liver. The experiment in a line: Apparent clearance in CD1 mouse liver at 70 mg/kg, ip by LC-MS/MS analysis. Format: ADME, organism-based. The conditions noted are these: in vivo.
Series [15] in a line: Terminal half life in CD1 mouse muscle at 70 mg/kg, ip by LC-MS/MS analysis. Format: ADME, organism-based, Muscle tissue. To be noted: read-out: beta t1/2.
A short description of series [16]: Cmax in CD1 mouse muscle at 70 mg/kg, ip by LC-MS/MS analysis. Format: ADME, organism-based, Muscle tissue. Also on record: dose 70 mg/kg, route intraperitoneal.
Series [17] in a line: Tmax in CD1 mouse muscle at 70 mg/kg, ip by LC-MS/MS analysis. Format: ADME, organism-based, Muscle tissue.
Series [18] is described as follows: AUClast in CD1 mouse muscle at 70 mg/kg, ip by LC-MS/MS analysis. Format: ADME, organism-based, Muscle tissue. The conditions noted are these: in vivo.
A short description of series [19]: Apparent volume of distribution during terminal phase in CD1 mouse muscle at 70 mg/kg, ip by LC-MS/MS analysis. Format: ADME, organism-based, Muscle tissue. The conditions noted are these: in vivo.
Series [20] in a line: Apparent clearance in CD1 mouse muscle at 70 mg/kg, ip by LC-MS/MS analysis. Type of series: ADME, organism-based, Muscle tissue. The conditions noted are these: in vivo.

The structures appear in SMILES notation.

Usually IC50 stands for the concentration that inhibits the measured activity by half. A word on the Kd: it is the equilibrium constant for the complex coming apart. What is called Cmax is the highest concentration seen after dosing. One may read the Tmax as the time at which the peak concentration occurs.

As to `O=C(O)CC(=O)N1CCC(Nc2ccc3c(c2)CN(S(=O)(=O)c2ccc(O)cc2O)C3)CC1`, in [1], the IC50 was found to be 1660 nM.

`O=S(=O)(c1ccc(O)cc1O)N1Cc2ccc(O)cc2C1`: in [1], the IC50 was 570 nM.

Take `O=S(=O)(c1ccc(O)cc1O)N1Cc2ccc(NC3CCN(CC(O)CO)CC3)cc2C1` (configuration not stated): in [1], the IC50 came to 154 nM.

For `NC(=O)C[C@H](N)C(=O)N1CCCN(c2ccc3c(c2)CN(S(=O)(=O)c2ccc(O)cc2O)C3)CC1`, the IC50 in series [1] turned out to be 1510 nM.

Regarding `O=C(O)CCCCCCCC(=O)N1CCC(Nc2ccc3c(c2)CN(S(=O)(=O)c2ccc(O)cc2O)C3)CC1`, the IC50 in series [1] is 629 nM.

`O=S(=O)(c1ccc(O)cc1O)N1Cc2ccc(NC3CCCCC3)cc2C1`: the IC50 in series [1] worked out at 1200 nM.

For the molecule `NCCCC[C@H](N)C(=O)N1CCC(Nc2ccc3c(c2)CN(S(=O)(=O)c2ccc(O)cc2O)C3)CC1`, in series [1], the IC50 came to 580 nM.

For the molecule `NC(=O)C[C@H](N)C(=O)NCCCNc1ccc2c(c1)CN(S(=O)(=O)c1ccc(O)cc1O)C2`, the IC50 in series [1] turned out to be 67 nM.

As to `NC(=O)C[C@H](N)C(=O)N1CC(Nc2ccc3c(c2)CN(S(=O)(=O)c2ccc(O)cc2O)C3)C1`, in series [1], the IC50 was found to be 65 nM.

Consider `C[C@H](O)[C@H](N)C(=O)N1CCC(Nc2ccc3c(c2)CN(S(=O)(=O)c2ccc(O)cc2O)C3)CC1`, for which the IC50 in series [1] stood at 91 nM.

Regarding `O=S(=O)(c1ccc(O)cc1O)N1Cc2ccc(NC3CCN(Cc4ccccc4)CC3)cc2C1`, the half-maximal inhibitory concentration (IC50) in [1] was 416 nM.

Turning to `O=S(=O)(c1ccc(O)cc1O)N1Cc2ccc(N3CCNCC3)cc2C1`, the IC50 in series [1] was 1350 nM.

Turning to `O=S(=O)(c1ccc(O)cc1O)N1Cc2cc(O)cc(O)c2C1`, the IC50 in series [1] was 456 nM. Also, the Kd in [2] was determined as 156 nM. The “beta t1/2” value in series [3] worked out at 5.65 h; in [9] it was 1.67 h. In addition, the Cmax in series [4] was 29000 ng/mL; in series [10], 5707 ng/g; in series [16], 17400 ng/g. Also, the Tmax in series [5] is 0.167 h; in [11], 0.167 h; in [17], 0.5 h. The AUClast in series [6] was found to be 1494106 ng·min/mL; in series [12], 245088 ng·min/g; in series [18] it was 885986 ng·min/g. The Vz/F in series [7] was 679 mL; in series [13] it was 1174 g; in [19], 1720 g. Besides, the CL/F in series [8] came to 1.39 mL/min; in [14], 8.13 g/min; in series [20], 2.32 g/min. Besides, the half-life in series [15] worked out at 8.57 h.

The values above are taken from ChEMBL document CHEMBL3997786, “Development of Dihydroxyphenyl Sulfonylisoindoline Derivatives as Liver-Targeting Pyruvate Dehydrogenase Kinase Inhibitors” (J Med Chem, 2017).
